Experimental data: US20230226005A1, “Methods of Treating, Ameliorating, Shortening Duration, and/or Reversing Symptoms and/or Complications of a Coronavirus Infection” (Yale University, priority 2020, published 2023)

Tests used:
SARS-CoV-2 [1] = conditions: 600 mg po four times daily for up to 14 days; cited from earlier work
COVID-19 infection = assay: Phase IIa study: body-family symptom score; type: in vivo; conditions: for body-family symptoms, Fitzmaurice mixed effects model, Effect: Camostat vs Placebo
SARS-CoV-2 [2] = assay: Phase IIa double-blind placebo-controlled study, camostat mesylate 200 mg four times daily for seven days: viral load (log10) by COVID-19 RT-PCR of nasopharyngeal swab and saliva; type: in vivo

## CN(C)C(=O)COC(=O)Cc1ccc(OC(=O)c2ccc(NC(=N)N)cc2)cc1 [camostat, 4-[[4-[(Aminoiminomethyl)amino]benzoyl]oxy]benzeneacetic acid 2-(dimethylamino)-2-oxoethyl ester]
SARS-CoV-2 [1]
  time required for a negative SARS-CoV-2 test (primary endpoint): did not show efficacy
COVID-19 infection; Day 0
  body-family symptoms, Fitzmaurice mixed effects model, Camostat: 17.1 (1.2)
COVID-19 infection; Day 1
  body-family symptoms, Fitzmaurice mixed effects model, Camostat: 14.3 (1.5)
  body-family symptoms, Fitzmaurice mixed effects model, Effect: −0.6 (1.7)
COVID-19 infection; Day 2
  body-family symptoms, Fitzmaurice mixed effects model, Camostat: 13.6 (1.5)
  body-family symptoms, Fitzmaurice mixed effects model, Effect: −2.1 (1.7)
COVID-19 infection; Day 3
  body-family symptoms, Fitzmaurice mixed effects model, Camostat: 11.9 (1.5)
  body-family symptoms, Fitzmaurice mixed effects model, Effect: −0.8 (1.7)
COVID-19 infection; Day 4
  body-family symptoms, Fitzmaurice mixed effects model, Camostat: 8.9 (1.5)
  body-family symptoms, Fitzmaurice mixed effects model, Effect: 0.9 (1.7)
COVID-19 infection; Day 5
  body-family symptoms, Fitzmaurice mixed effects model, Camostat: 7.3 (1.5)
  body-family symptoms, Fitzmaurice mixed effects model, Effect: 4.2 (1.7)
COVID-19 infection; Day 6
  body-family symptoms, Fitzmaurice mixed effects model, Camostat: 5.2 (1.5)
  body-family symptoms, Fitzmaurice mixed effects model, Effect: 4.4 (1.7)
COVID-19 infection; Day 7
  body-family symptoms, Fitzmaurice mixed effects model, Camostat: 4.9 (1.6)
  body-family symptoms, Fitzmaurice mixed effects model, Effect: 2.8 (1.7)
COVID-19 infection; Day 8
  body-family symptoms, Fitzmaurice mixed effects model, Camostat: 3.9 (1.6)
  body-family symptoms, Fitzmaurice mixed effects model, Effect: 3.1 (1.8)
COVID-19 infection; Day 9
  body-family symptoms, Fitzmaurice mixed effects model, Camostat: 3.8 (1.6)
  body-family symptoms, Fitzmaurice mixed effects model, Effect: 3.1 (1.8)
COVID-19 infection; Day 10
  body-family symptoms, Fitzmaurice mixed effects model, Camostat: 3.3 (1.6)
  body-family symptoms, Fitzmaurice mixed effects model, Effect: 3.1 (1.8)
COVID-19 infection; Day 11
  body-family symptoms, Fitzmaurice mixed effects model, Camostat: 3 (1.6)
  body-family symptoms, Fitzmaurice mixed effects model, Effect: 2.8 (1.8)
COVID-19 infection; Day 12
  body-family symptoms, Fitzmaurice mixed effects model, Camostat: 3.8 (1.6)
  body-family symptoms, Fitzmaurice mixed effects model, Effect: 1.6 (1.8)
COVID-19 infection; Day 13
  body-family symptoms, Fitzmaurice mixed effects model, Camostat: 3 (1.6)
  body-family symptoms, Fitzmaurice mixed effects model, Effect: 2.4 (1.8)
COVID-19 infection; Day 14
  body-family symptoms, Fitzmaurice mixed effects model, Camostat: 3.2 (1.6)
  body-family symptoms, Fitzmaurice mixed effects model, Effect: 2 (1.8)
SARS-CoV-2 [2]; N gene, day 0
  viral load, Fitzmaurice mixed model, Common baseline: 6.5 (6, 6.9) ^ log10
SARS-CoV-2 [2]; N gene, day 2
  viral load change Effect (camostat vs placebo), Fitzmaurice mixed model, visit 2: −0.06 (−0.83, 0.7) log10
  viral load, Fitzmaurice mixed model, visit 2: 5.3 (4.6, 5.9) log10
  viral load, Fitzmaurice mixed model, visit 2 change: −1.2 (−1.8, −0.6) log10
SARS-CoV-2 [2]; N gene, day 4
  viral load change Effect (camostat vs placebo), Fitzmaurice mixed model, visit 3(D4): −0.74 (−1.51, 0.03) log10
  viral load, Fitzmaurice mixed model, visit 3(D4): 4.4 (3.8, 5.1) log10
  viral load, Fitzmaurice mixed model, visit 3(D4) change: −2 (−2.6, −1.5) log10
SARS-CoV-2 [2]; N gene, day 6
  viral load change Effect (camostat vs placebo), Fitzmaurice mixed model, visit 4(D6): −0.23 (−1.4, 0.94) log10
  viral load, Fitzmaurice mixed model, visit 4(D6): 2.8 (2, 3.7) ^ log10
  viral load, Fitzmaurice mixed model, visit 4(D6) change: −3.6 (−4.5, −2.8) log10
SARS-CoV-2 [2]; N gene, visit 1 (day 0)
  change in viral load from baseline, Mean: 0.00 log10
  change in viral load from baseline, Median: 0.00 log10
  viral load (log10) Mean: 6.35 log10
  viral load (log10) Median: 6.47 log10
SARS-CoV-2 [2]; N gene, visit 2 (day 2)
  change in viral load from baseline, Mean: −1.15 log10
  change in viral load from baseline, Median: −1.14 log10
  viral load (log10) Mean: 4.89 log10
  viral load (log10) Median: 4.49 log10
SARS-CoV-2 [2]; N gene, visit 3 (day 4)
  change in viral load from baseline, Mean: −2.07 log10
  change in viral load from baseline, Median: −2.32 log10
  viral load (log10) Mean: 4.35 log10
  viral load (log10) Median: 4.56 log10
SARS-CoV-2 [2]; N gene, visit 4 (day 6)
  change in viral load from baseline, Mean: −3.41 log10
  change in viral load from baseline, Median: −3.07 log10
  viral load (log10) Mean: 2.58 log10
  viral load (log10) Median: 2.48 log10
SARS-CoV-2 [2]; N gene, visit 5 (day 14)
  change in viral load from baseline, Mean: −5.21 log10
  change in viral load from baseline, Median: −5.52 log10
  viral load (log10) Mean: 1.21 log10
  viral load (log10) Median: 0.12 log10
SARS-CoV-2 [2]; N gene, visit 6 (day 28)
  change in viral load from baseline, Mean: −6.33 log10
  change in viral load from baseline, Median: −6.60 log10
  viral load (log10) Mean: 0.05 log10
  viral load (log10) Median: 0.00 log10
SARS-CoV-2 [2]; ORF1ab gene, visit 1 (day 0)
  change in viral load from baseline, Mean: 0.00 log10
  change in viral load from baseline, Median: 0.00 log10
  viral load (log10) Mean: 6.17 log10
  viral load (log10) Median: 6.50 log10
SARS-CoV-2 [2]; ORF1ab gene, visit 2 (day 2)
  change in viral load from baseline, Mean: −1.17 log10
  change in viral load from baseline, Median: −1.04 log10
  viral load (log10) Mean: 4.71 log10
  viral load (log10) Median: 4.20 log10
SARS-CoV-2 [2]; ORF1ab gene, visit 3 (day 4)
  change in viral load from baseline, Mean: −2.14 log10
  change in viral load from baseline, Median: −2.33 log10
  viral load (log10) Mean: 4.10 log10
  viral load (log10) Median: 4.41 log10
SARS-CoV-2 [2]; ORF1ab gene, visit 4 (day 6)
  change in viral load from baseline, Mean: −3.39 log10
  change in viral load from baseline, Median: −3.41 log10
  viral load (log10) Mean: 2.42 log10
  viral load (log10) Median: 2.47 log10
SARS-CoV-2 [2]; ORF1ab gene, visit 5 (day 14)
  change in viral load from baseline, Mean: −5.19 log10
  change in viral load from baseline, Median: −5.61 log10
  viral load (log10) Mean: 1.04 log10
  viral load (log10) Median: 0.00 log10
